Laboratory results as given in patent US20080194585A1, “Fungicidal Pyrazine Derivatives” (priority 2005, published 2008).
Marks after values point to notes of the source that are not given here.

Key:
Sclerotinia sclerotiorum = test: Test C: cucumber white mold, preventive spray on cucumber seedlings; details: for pest or weed control at 200 ppm: Sclerotinia sclerotiorum, in Cucumis sativus, 168 h, read-out: Test C disease control rating, 200 ppm
[1] = test system: Puccinia recondita f. sp. tritici; test: Test K: wheat leaf rust, preventive spray on wheat seedlings; details: for pest or weed control at 200 ppm: Puccinia recondita, in Triticum aestivum, 192 h, read-out: Test K disease control rating
fusarium graminearium = test: Test I: wheat head scab, preventive spray on wheat seedlings; details: for pest or weed control at 200 ppm: Fusarium, in Triticum aestivum, topical, 192 h, read-out: Test I disease control rating, 200 ppm
Method: (the causal agent of wheat head scab) and incubated in a saturated atmosphere at 20° C. for 72 h, and then moved to a growth chamber at 22° C. for 5 days, after which disease ratings were made.

Rhizoctonia oryzae = test: Test G: turf brown patch, preventive spray on creeping bent grass seedlings; details: for pest or weed control at 200 ppm: Waitea circinata, in Agrostis stolonifera, topical, 144 h, read-out: Test G disease control rating, 200 ppm
Method: (the causal agent of turf brown patch) and incubated in a saturated atmosphere at 27° C. for 24 h, and then moved to a growth chamber at 27° C. for 5 days, after which disease ratings were made.

Phytophthora infestans = test: whole plant or invertebrate; type: in vivo
Septoria nodorum = test: Test H: wheat glum blotch, preventive spray on wheat seedlings; details: for pest or weed control at 200 ppm: Parastagonospora nodorum, in Triticum aestivum, topical, 168 h, read-out: Test H disease control rating, 200 ppm
Method: (the causal agent of wheat glum blotch) and incubated in a saturated atmosphere at 20° C. for 48 h, and then moved to a growth chamber at 22° C. for 5 days, after which disease ratings were made.

Botrytis cinerea = test: Test E: tomato botrytis, preventive spray on tomato seedlings; details: for pest or weed control at 200 ppm: Botrytis cinerea, in Solanum lycopersicum, topical, 72 h, read-out: Test E disease control rating
[2] = test system: Colletotrichum orbiculare; test: Test B: cucumber Colletotrichum anthracnose, preventive spray on cucumber seedlings; details: for pest or weed control at 200 ppm: Colletotrichum orbiculare, in Cucumis sativus, 144 h, read-out: Test B disease control rating, 200 ppm
[3] = test system: Erysiphe graminis f. sp. tritici; test: Test L: wheat powdery mildew, preventive spray on wheat seedlings; details: for pest or weed control at 200 ppm: Blumeria graminis, in Triticum aestivum, 168 h, read-out: Test L disease control rating, 200 ppm
Pythium aphanidermatum = test: Test A: bluegrass pythium blight, preventive spray on bluegrass seedlings; details: for pest or weed control at 200 ppm: Pythium aphanidermatum, 120 h, read-out: Test A disease control rating
Plasmopara viticola = test: Test D: grape downy mildew, spray after inoculation of grape seedlings; type: in vivo; details: for pest or weed control at 200 ppm: Plasmopara viticola, 168 h, read-out: Test D disease control rating
Text: Upon removal, disease ratings were made. […] A dash (-) indicates no test results.

Septoria tritici = test: Test J: wheat leaf blotch, preventive spray on wheat seedlings; type: in vivo; details: 40 ppm (marked *); 100 = 100% disease control, 0 = no control
Text: A dash (-) indicates no test results.

[4] = 40 ppm (marked *), 100 = 100% disease control, 0 = no control

| SMILES | Test C disease control rating (Sclerotinia sclerotiorum; 200 ppm) [%] | Test K disease control rating ([1]; 200 ppm) [%] | Test I disease control rating (fusarium graminearium; 200 ppm) [%] | Test G disease control rating (Rhizoctonia oryzae; 200 ppm) [%] | Test F disease control rating (Phytophthora infestans; 200 ppm) [%] | Test H disease control rating (Septoria nodorum; 200 ppm) [%] | Test E disease control rating (Botrytis cinerea; 200 ppm) [%] | Test B disease control rating ([2]; 200 ppm) [%] | Test L disease control rating ([3]; 200 ppm) [%] | Test A disease control rating (Pythium aphanidermatum; 200 ppm) [%] | Test D disease control rating (Plasmopara viticola; 200 ppm) [%] | also measured |
| --- | --- | --- | --- | --- | --- | --- | --- | --- | --- | --- | --- | --- |
| CC(C)Cn1c(-c2c(F)cccc2F)c(Cl)nc(-n2cccn2)c1=O [Compound 1, 5-Chloro-6-(2,6-difluorophenyl)-1-(2-methylpropyl)-3-(1H-pyrazol-1-yl)-2(1H)-pyrazinone] | – | – | – | – | – | – | – | – | – | – | – | pest or weed control at 200 ppm (Sclerotinia sclerotiorum): 0%; pest or weed control at 200 ppm [1]: 99%; pest or weed control at 200 ppm (fusarium graminearium): 0%; pest or weed control at 200 ppm (Rhizoctonia oryzae): 78%; pest or weed control at 200 ppm (Phytophthora infestans; Phytophthora infestans, in Solanum lycopersicum, topical, 144 h, read-out: Test F disease control rating): 0%; pest or weed control at 200 ppm (Septoria nodorum): 99%; pest or weed control at 200 ppm (Botrytis cinerea): 100%; pest or weed control at 200 ppm [2]: 0%; pest or weed control at 200 ppm [3]: 93%; pest or weed control at 200 ppm (Pythium aphanidermatum): 0%; pest or weed control at 200 ppm (Plasmopara viticola; 200 ppm): 0% |
| CC(C)Cn1c(-c2c(F)cccc2F)c(Cl)nc(C#N)c1=O [Compound 5, 6-Chloro-5-(2,6-difluorophenyl)-3,4-dihydro-4-(2-methylpropyl)-3-oxopyrazinecarbonitrile] | – | – | – | – | – | – | – | – | – | – | – | pest or weed control at 200 ppm (Sclerotinia sclerotiorum): 0%; pest or weed control at 200 ppm [1]: 99%; pest or weed control at 200 ppm (fusarium graminearium): 20%; pest or weed control at 200 ppm (Rhizoctonia oryzae): 26%; pest or weed control at 200 ppm (Septoria nodorum): 0%; pest or weed control at 200 ppm (Botrytis cinerea): 71%; pest or weed control at 200 ppm [2]: 33%; pest or weed control at 200 ppm [3]: 97%; pest or weed control at 200 ppm (Pythium aphanidermatum): 71%; pest or weed control at 200 ppm (Plasmopara viticola; 200 ppm): 24% |
| Cn1c(-c2ccccc2F)c(Cl)nc(-n2cncn2)c1=O [Compound 15] | 0 | 0 | 0 | 0 | 0 | 0 | 0 | 0 | 0 | 0 | 0 | – |
| CC(C)Cn1c(-c2c(F)cccc2Cl)c(Cl)nc(-n2cccn2)c1=O [compound 9] | 98 | 100 | 80 | 82 | 88 | 100 | 100 | 100 | 99 | 62 | 49 | – |
| Cn1c(-c2ccccc2F)c(Cl)nc(-n2cccn2)c1=O [compound 14] | 0 | 0 | 0 | 0 | 27 | 0 | 79 | 0 | 21 | 0 | 0 | – |
| O=c1c(N2CCC=N2)nc(Cl)c(-c2c(F)cccc2F)n1CC1CC1 [compound 16] | 0 | 68 | 0 | 0 | 84 | 0 | 99 | 0 | 26 | 0 | 8 | – |
| CCC(C)Cn1c(-c2c(F)cc(F)cc2F)c(Cl)nc(-n2cncn2)c1=O (stereo not shown) [compound 20] | 0 | 100 | 0 | 26 | 30 | 98 | 100 | 0 | 98 | 0 | 0 | – |
| CCC(C)Cn1c(-c2c(F)cccc2F)c(Cl)nc(C#N)c1=O (stereo not shown) [compound 21] | 0 | 96 | 0 | 31 | 0 | 0 | 99 | 0 | 96 | 0 | 15 | – |
| CC(C)Cn1c(-c2cccc(Cl)c2Cl)c(Cl)nc(-n2cncn2)c1=O [compound 39] | 0 | 67 | 0 | 0 | 0 | 89 | 99 | 0 | 0 | 0 | 0 | – |
| CC(C)Cn1c(-c2c(Cl)cccc2Cl)c(Cl)nc(-n2cncn2)c1=O [compound 40] | 0 | 99 | 0 | 65 | 0 | 99 | 100 | 0 | 21 | 0 | 0 | – |
| CC(C)Cn1c(-c2cccc(Cl)c2Cl)c(Cl)nc(-n2cccn2)c1=O [compound 41] | 98 | 83 | 0 | 47 | 0 | 100 | 100 | 68 | 0 | 0 | 8 | – |
| CC(C)Cn1c(-c2cc(Cl)cc(Cl)c2)c(Cl)nc(-n2cccn2)c1=O [compound 42] | 0 | 0 | 60 | 0 | 0 | 0 | 0 | 0 | 0 | 0 | 0 | – |
| CC(C)Cn1c(-c2ccc(Cl)cc2F)c(Cl)nc(-n2cncn2)c1=O [compound 44] | – | – | – | – | – | – | – | – | – | – | – | Test C disease control rating (Sclerotinia sclerotiorum; 40 ppm (*)): 0* %; Test K disease control rating ([1]; 40 ppm (*)): 0* %; Test I disease control rating (fusarium graminearium; 40 ppm (*)): 0* %; Test G disease control rating (Rhizoctonia oryzae; 40 ppm (*)): 16* %; Test F disease control rating (Phytophthora infestans; 40 ppm (*)): 0* %; Test H disease control rating (Septoria nodorum; 40 ppm (*)): 0* %; Test E disease control rating (Botrytis cinerea; 40 ppm (*)): 95* %; Test B disease control rating ([2]; 40 ppm (*)): 0* %; Test L disease control rating ([3]; 40 ppm (*)): 0* %; Test A disease control rating (Pythium aphanidermatum; 40 ppm (*)): 0* %; Test D disease control rating (Plasmopara viticola; 40 ppm (*)): 0* % |
| CC(C)Cn1c(-c2ccc(C(F)(F)F)cc2F)c(Cl)nc(-n2cccn2)c1=O [compound 46] | 0 | 0 | 78 | 0 | 0 | 0 | 0 | 0 | 0 | 0 | 0 | – |
| CC(C)=NNc1nc(Cl)c(-c2c(F)cccc2F)n(CC(C)C)c1=O [compound 48] | 0 | 80 | 0 | 16 | 0 | 0 | 83 | 0 | 0 | 0 | 0 | – |
| Cc1cc(C)c(-c2c(Cl)nc(-n3cccn3)c(=O)n2CC(C)C)c(C)c1 [compound 254] | – | – | – | – | – | – | – | – | – | – | – | Test C disease control rating (Sclerotinia sclerotiorum; [4]): 0* %; Test K disease control rating [1, 4]: 59* %; Test G disease control rating (Rhizoctonia oryzae; [4]): 41* %; Test F disease control rating (Phytophthora infestans; [4]): 0* %; Test H disease control rating (Septoria nodorum; [4]): 0* %; Test E disease control rating (Botrytis cinerea; [4]): 94* %; Test B disease control rating [2, 4]: 0* %; Test L disease control rating [3, 4]: 54* %; Test A disease control rating (Pythium aphanidermatum; [4]): 0* %; Test J disease control rating (Septoria tritici): 99* %; Test D disease control rating (Plasmopara viticola; [4]): 0* % |
